Source: ChEMBL document CHEMBL1156829 (Proc Natl Acad Sci U S A, 2008)
pEC50: −log10 of the molar value.

Legend:
Plasmodium falciparum [1] = assay: NOVARTIS: Inhibition of Plasmodium falciparum 3D7 (drug-susceptible) proliferation in erythrocyte-based infection assay; format: functional, organism-based; details: Plasmodium falciparum, 3D7
Plasmodium falciparum [2] = assay: NOVARTIS: Inhibition of Plasmodium falciparum W2 (drug-resistant) proliferation in erythrocyte-based infection assay; format: functional, organism-based; details: Plasmodium falciparum, W2; read-out: EC50
[3] = NOVARTIS: Cytotoxicity against human hepatocellular carcinoma cell line (Huh7); format: toxicity, cell-based, Huh-7; details: Huh7 cells (hepatocellular carcinoma cell line)

Compound | pEC50 (Plasmodium falciparum [1]) | pEC50 (Plasmodium falciparum [2]) | CC50 [3]
Cc1cc(C)n(-c2ncc(-c3ccc([N+](=O)[O-])cc3)cn2)n1 | < 4.90 | 5.40 | > 100000 nM
Cc1ccc2c(C)nc(NC(=N)N)nc2c1 | 6.39 | 6.12 | 48200 nM
COC(=O)c1ccc(N2C(=O)C3C(C2=O)C2(c4ccccc4)C(=O)C3(c3ccccc3)C(c3ccc(OC)cc3)=C2c2ccc(OC)cc2)cc1 (configuration not stated) | 5.32 | < 4.90 | > 100000 nM
N=c1c2c(n(Cc3ccc([N+](=O)[O-])cc3)c3c1CCC3)CCCC2 | 6.92 | 6.89 | > 100000 nM
COCCn1c(SCC(=O)c2ccc(C)cc2C)nnc1-c1ccco1 | < 6.06 | 6.53 | > 10000 nM
C=CC1CN2CCC1CC2C(O)c1ccnc2ccc(OC)cc12 (configuration not stated) | 7.93 | 7.27 | 82500 nM
CC1=NNC(=O)C1C(c1ccc(Cl)cc1Cl)C1C(=O)NN=C1C (configuration not stated) | < 6.32 | < 5.90 | > 10000 nM
COC(=O)C1=C(C)NC2=C(C(=O)CC(c3ccc(OC)c(OC)c3)C2)C1c1ccccc1F (configuration not stated) | 7.30 | 7.51 | > 100000 nM
CCN(CC)CCCN(Cc1cc2cc(OC)ccc2[nH]c1=O)C(=S)Nc1ccc(C)cc1 | 5.47 | 5.69 | 33000 nM
CCN1C(=O)N(CC)C(NNC(N)=S)C1NNC(N)=S (configuration not stated) | 6.91 | 6.82 | > 100000 nM
COc1ccc([N+](=O)[O-])cc1N(CC1CO1)S(=O)(=O)c1ccc(C)cc1 (configuration not stated) | < 4.90 | 5.18 | > 100000 nM
Fc1ccc2[nH]c3c(N4CCN(C(c5ccccc5)c5ccccc5)CC4)ncnc3c2c1 | 6.36 | 6.42 | 14800 nM
COc1ccc(-n2c(S)nnc2CNc2cccc(C(F)(F)F)c2)cc1 | 5.31 | 5.54 | > 100000 nM
COc1ccc(/C=C/C(=O)NC(=O)c2ccccc2O)cc1 | 6.93 | 7.04 | > 10000 nM
CCOC(=O)C1CCN(C(=S)Nc2ccc3nsnc3c2)CC1 | 6.46 | 6.43 | 30300 nM
Oc1ccc(Nc2nc(NCc3ccco3)c3ccccc3n2)cc1 | 7.06 | 5.95 | 19700 nM
O=c1sc(=NCC(O)c2ccc(Cl)c(Cl)c2)[nH]c2ccccc12 (configuration not stated) | 6.12 | 7.14 | > 10000 nM

Compound | pEC50 (Plasmodium falciparum [1]) | pEC50 (Plasmodium falciparum [2]) | CC50 [3]
COc1cccc(-c2ccc(O)c(CN(C)C3CCCCC3)c2)n1 | 5.94 | 7.04 | > 13000 nM
Cc1ccc(-c2c[n+](Cc3ccc(Cl)cc3)c3n2CCC3)cc1 | 6.43 | 6.82 | > 75700 nM
Cc1cc(NS(=O)(=O)c2ccc(N=Cc3ccc(C#N)cc3)cc2)no1 | < 5.79 | < 6.24 | > 10000 nM
CCOC(=O)C(=O)N1c2ccc(OCC)cc2-c2c(ssc2=S)C1(C)C | 6.60 | 7.60 | > 100000 nM
Cc1cc(NC(c2cccc(Br)c2)c2ccc3cccnc3c2O)no1 (configuration not stated) | 6.57 | 6.40 | > 22800 nM
Cc1cccc(-n2nc3c(c2NC(=O)c2ccc4c(c2)OCO4)CS(=O)(=O)C3)c1C | 6.91 | < 5.90 | > 10000 nM
CCOC(=O)C1=C(C)NC2=C(C(=O)CC(c3ccc(Cl)cc3)C2)C1c1ccc(F)cc1 (configuration not stated) | 7.02 | 7.37 | > 100000 nM
Oc1ccc(-c2nc3ccccc3s2)cc1CN1CCCCC1 | 5.94 | 6.10 | > 6130 nM
CC(C)(C)CC(C)(C)Nc1c(-c2ccccc2OC(=O)c2ccc([N+](=O)[O-])cc2)nc2ccccn12 | 6.60 | 8.28 | 1480 nM
O=C1CCC2C3C=CC(C3)C12 (configuration not stated) | 5.75 | 6.35 | > 12400 nM
COc1ccc(OCC(=O)Nc2cccc(-c3nc4ncccc4o3)c2)cc1 | 5.83 | 6.03 | > 100000 nM
CCCCCc1nnc(NC(=O)c2ccc(-c3ccc(OC)cc3)cc2)s1 | 6.34 | 7.57 | > 10000 nM
Clc1ccc(-c2cn3c([n+]2-c2ccccc2)CCC3)cc1 | 6.59 | 5.45 | > 100000 nM
CCN(CC)CCCNC(=S)N(Cc1ccc(F)cc1)Cc1cc2cc(C)cc(C)c2[nH]c1=O | 5.56 | 5.92 | 22500 nM
CN(CC(=O)NC(C)(C)C)S(=O)(=O)c1ccccc1 | < 5.90 | < 6.00 | > 10000 nM
CCCCN(CC(=O)N1c2ccccc2-n2cccc2C1c1ccc(OC)cc1)C(=O)Nc1cccc(F)c1 (configuration not stated) | 5.07 | 5.20 | > 100000 nM
CN(Cc1ccccc1)CC(O)COc1ccc(CNCCCN2CCCC2)cc1 (configuration not stated) | 5.62 | 5.59 | 59800 nM
